Like-named read-outs stand apart in the source and are kept apart here.
Key:
Bcl-xL = Bcl-xL (Homo sapiens, UniProt Q07817); test: Time Resolved-Fluorescence Resonance Energy Transfer (TR-FRET) binding assay, competition with probe F-Bak
Summary of the method: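 Compounds compete with F-Bak probe for GST-Bcl-xL detected by Tb-anti-GST antibody. Serial dilutions from 50 μM (2× stock) incubated 2 h at room temperature, then read at 340 nm excitation, 520 and 495 nm emission. Ki by Wang's equation, tested without and with 1% human serum.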

[1] = tested on: permeabilized Bcl-xL dependent Molt-4 cells; test: Cytochrome C release in selectively (digitonin) permeabilized Molt-4 cells; format: cell-based, human; conditions: Homo sapiens, MOLT-4, 4 h, 4 h treatment, read-out: Molt-4 Permeabilized Cyt C Release
Description: The permeabilization of the mitochondrial outer membrane to release proteins from the intermembrane space into the cytosol is a pivotal event in the process of apoptosis. Specifically, the release of cytochrome C triggers the formation of the apoptosome which, in turn, results in caspase activation and other events that will commit the cell to undergo programmed cell death (Goldstein el al., 2005, Cell Death and Differentiation 12:453). The process of mitochondrial outer membrane permeabilization (MOMP) is controlled by the Bcl-2 family members. It is promoted by the multidomain pro-apoptotic proteins Bax and Bak which, upon activation, oligomerize on the outer mitochondrial membrane and form pores to ultimately release cytochrome C. This action is antagonized by the antiapoptotic members, including Bcl-2 and Bcl-xL. Compounds that are capable of inhibiting Bcl-2 or Bcl-xL, for example, in cells that depend upon these proteins for survival, can cause activation of Bax and or Bak, MOMP, release of cytochrome C and the mentioned downstream steps in the apoptotic process. This process of cytochrome C release can be measured in cells via Western blot of both mitochrondrial and cytosolic fractions, and can be used a proxy measurement of apoptosis in cells.
As a means of detecting the ability of a Bcl-xL inhibitor with low cell-permeability to cause release of cytochrome C, the cells can be treated with an agent that causes selective pore formation in the plasma membrane, but not the mitochondrial membrane. Specifically, the cholesterol/phospholipid ratio is much higher in the plasma membrane than the mitochondrial membrane. […] This agent forms insoluble complexes with cholesterol leading to the segregation of cholesterol from its normal phospholipid binding sites. This action, in turn, leads to the formation of holes about 40-50 Å wide in the lipid bilayer. Once the plasma membrane is permeabilized, cytosolic components able to pass over digitonin-formed holes can be washed out, including the cytochrome C that was released from mitochondria to cytosol in the apoptotic cells ((Campos, 2006, Cytometry A 69(6):515-523)).
To determine if Bcl-xL inhibitors were inducing cell death through apoptosis, cytochrome C release was measured in Bcl-xL dependent Molt-4 cells following treatment Specifically, 1×10^6 cells were treated for 4 h (37° C., 5% CO2) with the test compounds in half-log dilutions starting at 3.0 μM and ending at 0.01 μM. Cells were then processed as described in Chen et al., 2011, Mol. Cancer Ther. 10:2340-2350 (the Bcl-2/Bcl-X(L)/Bcl-w inhibitor, navitoclax, enhances the activity of chemotherapeutic agents in vitro and in vivo.).

[2] = tested on: Molt-4 human acute lymphoblastic leukemia cells; test: Molt-4 cell viability assay (CellTiter-Glo, 48 hours, 10% HS); format: cell-based; conditions: Homo sapiens, MOLT-4, 48 h, non-permeabilized cells
Summary of the method: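 Cells were seeded at 12,500 per well in medium with 10% human serum and exposed to a 3-fold compound dilution series from 10 μM to 0.0005 μM. After 48 h, viable cells were quantified by CellTiter-Glo luminescence. Each concentration was run in duplicate on at least 3 occasions.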

[3] = in the presence of 1% HS, read-out: Bcl-xL Binding Ki (nM, 1% HS)
[4] = without HS, read-out: Bcl-xL Binding Ki

Chain of Bcl-xL (Q07817 whole entry): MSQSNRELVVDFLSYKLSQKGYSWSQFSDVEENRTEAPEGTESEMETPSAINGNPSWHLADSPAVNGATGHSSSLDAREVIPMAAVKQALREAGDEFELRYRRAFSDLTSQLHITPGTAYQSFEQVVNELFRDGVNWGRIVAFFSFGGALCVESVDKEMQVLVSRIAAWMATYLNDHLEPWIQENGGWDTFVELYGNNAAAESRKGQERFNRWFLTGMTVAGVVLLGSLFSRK

Ki (Bcl-xL; [3]) [nM]	Ki (Bcl-xL; [4]) [nM]	EC50 [1] [nM]	EC50 [2] [nM]	SMILES
0.17	< 0.001	< 0.5	63	Cc1c(-c2ccc(N3CCc4cccc(C(=O)Nc5nc6ccccc6s5)c4C3)nc2C(=O)O)cnn1CC12CC3(C)CC(C)(C1)CC(OCCOCCNCCS(=O)(=O)O)(C3)C2 [Example 1.11, 6-[8-(1,3-benzothiazol-2-ylcarbamoyl)-3,4-dihydroisoquinolin-2 (1H)-yl]-3-(1-{[3,5-dimethyl-7-(2-{2-[(2-sulfoethyl)amino]ethoxy}ethoxy)tricyclo[3.3.1.1^3,7]dec-1-yl]methyl}-5-methyl-1H-pyrazol-4-yl}pyridine-2-carboxylic acid]
0.16	< 0.001	< 0.5	–	Cc1c(-c2ccc(N3CCc4cccc(C(=O)Nc5nc6ccccc6s5)c4C3)nc2C(=O)O)cnn1CC12CC3(C)CC(C)(C1)CC(OCCNCCS(=O)(=O)O)(C3)C2 [Example 1.2, 6-[8-(1,3-benzothiazol-2-ylcarbamoyl)-3,4-dihydroisoquinolin-2 (1H)-yl]-3-(1-[(3,5-dimethyl-7-{12-[(2-sulfoethyl)amino]ethoxy}tricyclo[3.3.1.1^3,7]dec-1-yl)methyl]-5-methyl-1H-pyrazol-4-yl}pyridine-2-carboxylic acid]
–	–	< 0.5	92	Cc1c(-c2ccc(N3CCc4c(OCCNCCC(=O)O)ccc(C(=O)Nc5nc6ccccc6s5)c4C3)nc2C(=O)O)cnn1CC12CC3(C)CC(C)(C1)CC(OCCN(C)CCS(=O)(=O)O)(C3)C2 [Example 1.49, 6-[8-(1,3-benzothiazol-2-ylcarbamoyl)-5-{2-[(2-carboxyethyl)amino]ethoxy}-3,4-dihydroisoquinolin-2 (1H)-yl]-3-{1-[(3,5-dimethyl-7-{2-[methyl(2-sulfoethyl)amino]ethoxy}tricyclo[3.3.1.1^3,7]dec-1-yl)methyl]-5-methyl-1H-pyrazol-4-yl}pyridine-2-carboxylic acid]
34	0.88	–	3500	Cc1c(-c2ccc(N3CCc4cccc(C(=O)Nc5nc6ccccc6s5)c4C3)nc2C(=O)O)cnn1CC12CC3(C)CC(C)(C1)CC(OCCNCCCc1cn([C@@H]4O[C@H](C(=O)O)[C@@H](O)[C@H](O)[C@H]4O)nn1)(C3)C2 [Example 1.73, 8-(1,3-benzothiazol-2-ylcarbamoyl)-2-{6-carboxy-5-[1-({3-[2-({3-[1-(beta-D-glucopyranuronosyl)-1H-1,2,3-triazol-4-yl]propyl}amino)ethoxy]-5,7-dimethyltricyclo[3.3.1.1^3,7]dec-1-yl}methyl)-S-methyl-1H-pyrazol-4-yl]pyridin-2-yl}-1,2,3,4-tetrahydroisoquinoline]
0.85	0.016	–	409	CNCCCc1cc2c(c(C(=O)Nc3nc4ccccc4s3)c1)CN(c1ccc(-c3cnn(CC45CC6(C)CC(C)(C4)CC(OCCNCCS(=O)(=O)O)(C6)C5)c3C)c(C(=O)O)n1)CC2 [Example 1.75, 6-[8-(1,3-benzothiazol-2-ylcarbamoyl)-6-[3-(methylamino)propyl]-3,4-dihydroisoquinolin-2 (1H)-yl]-3-{1-[(3,5-dimethyl-7-{2-[(2-sulfoethyl)amino]ethoxy}tricyclo[3.3.1.1^3,7]dec-1-yl)methyl]-5-methyl-1H-pyrazol-4-yl}pyridine-2-carboxylic acid]
0.12	< 0.001	–	319	Cc1c(-c2ccc(N3CCc4cccc(C(=O)Nc5nc6ccccc6s5)c4C3)nc2C(=O)O)cnn1CC12CC3(C)CC(C)(C1)CC(OCCN(CCN)CCS(=O)(=O)O)(C3)C2 [Example 1.33, 3-{1-[(3-{2-[(2-aminoethyl)(2-sulfoethyl)amino]ethoxy}-5,7-dimethyltricyclo[3.3.1.1^3,7]dec-1-yl)methyl]-5-methyl-1H-pyrazol-4-yl}-6-[8-(1,3-benzothiazol-2-ylcarbamoyl)-3,4-dihydroisoquinolin-2 (1H)-yl]pyridine-2-carboxylic acid]
0.0329	< 0.001	–	973	CNCCOC12CC3(C)CC(C)(CC(Cn4ncc(-c5ccc(N6CCc7c(OCCCS(=O)(=O)O)ccc(C(=O)Nc8nc9ccccc9s8)c7C6)nc5C(=O)O)c4C)(C3)C1)C2 [Example 1.52, 6-[8-(1,3-benzothiazol-2-ylcarbamoyl)-5-(3-sulfopropoxy)-3,4-dihydroisoquinolin-2 (1H)-yl]-3-[1-({3,5-dimethyl-7-[2-(methylamino)ethoxy]tricyclo[3.3.1.1^3,7]dec-1-yl}methyl)-5-methyl-1H-pyrazol-4-yl]pyridine-2-carboxylic acid]
6.28	< 0.001	–	6480	Cc1c(-c2ccc(N3CCc4cccc(C(=O)Nc5nc6cccnc6s5)c4C3)nc2C(=O)O)cnn1CC12CC3(C)CC(C)(C1)CC(OCCNCCCP(=O)(O)O)(C3)C2 [Example 1.40, 3-{1-[(3,5-dimethyl-7-{2-[(3-phosphonopropyl)amino]ethoxy}tricyclo[3.3.1.1^3,7]dec-1-yl)methyl]-5-methyl-1H-pyrazol-4-yl}-6-[8-([1,3]thiazolo[5,4-b]pyridin-2-ylcarbamoyl)-3,4-dihydroisoquinolin-2 (1H)-yl]pyridine-2-carboxylic acid]
0.088	< 0.001	–	462	Cc1c(-c2ccc(-c3ccc4c(c3)N(C(=O)Nc3nc5ncccc5s3)CCC4)nc2C(=O)O)cnn1CC12CC3(C)CC(C)(C1)CC(OCCNCCS(=O)(=O)O)(C3)C2 [Example 1.53, 3-{1-[(3,5-dimethyl-7-{2-[(2-sulfoethyl)amino]ethoxy}tricyclo[3.3.1.1^3,7]dec-1-yl)methyl]-5-methyl-1H-pyrazol-4-yl}-6-[1-([1,3]thiazolo[4,5-b]pyridin-2-ylcarbamoyl)-1,2,3,4-tetrahydroquinolin-7-yl]pyridine-2-carboxylic acid]
1.2	0.069	–	259	Cc1c(-c2ccc(N3CCc4cccc(C(=O)Nc5nc6ccccc6s5)c4C3)nc2C(=O)O)cnn1CC12CC3(C)CC(C)(C1)CC(OCCNCCC(=O)NC(CO)(CO)CO)(C3)C2 [Example 1.84, 6-[8-(1,3-benzothiazol-2-ylcarbamoyl)-3,4-dihydroisoquinolin-2 (1H)-yl]-3-{1-[(3-{2-[(3-{[1,3-dihydroxy-2-(hydroxymethyl)propan-2-yl]amino}-3-oxopropyl)amino]ethoxy}-5,7-dimethyltricyclo[3.3.1.1^3,7]dec-1-yl)methyl]-5-methyl-1H-pyrazol-4-yl}pyridine-2-carboxylic acid]
0.2	< 0.001	–	153	Cc1c(-c2ccc(-c3ccc4c(c3)N(C(=O)Nc3nc5ccccc5s3)CCC4)nc2C(=O)O)cnn1CC12CC3(C)CC(C)(C1)CC(OCCNCCC(=O)O)(C3)C2 [Example 1.62, 6-[1-(1,3-benzothiazol-2-ylcarbamoyl)-1,2,3,4-tetrahydroquinolin-7-yl]-3-{1-[(3-{2-[(2-carboxyethyl)amino]ethoxy}-5,7-dimethyltricyclo[3.3.1.1^3,7]dec-1-yl)methyl]-5-methyl-1H-pyrazol-4-yl)pyridine-2-carboxylic acid]

Reference: patent US20240058450A1, “BCL-XL Inhibitory Compounds Having Low Cell Permeability and Antibody Drug Conjugates Including the Same” (AbbVie Inc., priority 2014, published 2024)
